Earlier results on six molecules are cited in patent US20080171032A1, “DIETARY SUPPLEMENT COMPOSITION AND METHOD OF USE FOR THE TREATMENT AND PREVENTION OF OXIDATIVE STRESS” (priority 2007, published 2008).

The subject of data set [1] is mitochondrial membranes.
Data set [2] concerns dermatomyositis. The note with it: two dermatomyositis patients, 15 to 20 grams daily.
The subject of data set [3] is scleroderma. The conditions noted are these: about 12 grams daily.
Data set [4] concerns advanced glycation end-products (AGEs). The note with it: 600 mg/day prior to blood draw.
Data set [5] has as its system human fibroblasts.
Data set [6] relates to serum lipid oxidation products. The conditions noted are these: human, tocotrienol supplementation at 40 mg/day, versus placebo.

Consider `CC1=C(/C=C/C(C)=C/C=C/C(C)=C/C=C/C=C(C)/C=C/C=C(C)/C=C/C2=C(C)C(=O)[C@@H](O)CC2(C)C)C(C)(C)C[C@H](O)C1=O` [Astaxanthin], for which, in data set [1], the “protection against oxygen-induced mitochondrial membrane damage” value is reported as “protection against oxygen-induced mitochondrial membrane damage”.
Consider `Nc1ccc(C(=O)O)cc1` [PABA, 4-aminobenzoic acid], for which the solubility in water result is reported as “slight”.
In the case of `Nc1ccc(C(=O)[O-])cc1.[K+]` [POTABA, potassium para-aminobenzoate], in data set [2], the clinical improvement result is recorded as “Clinical improvement was noted”. Besides, the “patients with mild, moderate or marked skin softening” value in data set [3] (224 scleroderma patients) was “Ninety”. For the same molecule, the adverse events entry in data set [3] (scleroderma patients) is reported as “no significant adverse events were reported”.
For `C/C(=C(\CCOP(=O)(O)O)SC(=O)c1ccccc1)N(C=O)Cc1cnc(C)nc1N` [benfotiamine], in data set [4], the “AGE formation in the cells of test subjects” value was “significant decrease” and the “glycoxidation in the cells of test subjects” value is recorded as “significant decrease”.
`NCCC(=O)N[C@@H](Cc1cnc[nH]1)C(=O)O` [carnosine]: in data set [5] (human fibroblasts approaching senescence supplemented with carnosine), the “effect on cells approaching senescence” value was “markedly rejuvenated and their lifespan extended”. Further, the “onset of cell senescence” value in data set [5] (human fibroblasts exposed to 50 mM carnosine) is given as “reduction in onset of cell senescence”.
As for tocotrienol, the “lowering of serum lipid oxidation products” value in data set [6] is recorded as “more effective in lowering serum lipid oxidation products than placebo”.
